Measurements taken from patent US20200002354A1, “HEXAHYDROPYRAZINOBENZ- OR -PYRIDO-OXAZEPINES CARRYING AN OXYGEN-CONTAINING SUBSTITUENT AND USE THEREOF IN THE TREATMENT OF 5-HT2C-DEPENDENT DISORDERS” (AbbVie Deutschland GmbH & Co. KG, priority 2015, published 2020).
pEC50: −log10 of the molar value.

Legend:
[1] = Metabolic stability in human liver microsomes, unbound intrinsic clearance; format: in vitro ADME; conditions: liver microsomes, pH 7.4; unbound intrinsic clearance (human); Clint unbound = Cl int/fu mic; read-out: Cl int, mic unb. (h)
Description: Samples of the tested compounds (0.5 μM) were preincubated together with human liver microsomes (0.25 mg of microsomal protein/mL) in 0.05 M potassium phosphate buffer of pH 7.4 in microtiter plates at 37° C. for 5 minutes. The reaction was started by adding NADPH (1.0 mM). After 0, 5, 10, 15, 20 and 30 minutes, an aliquot was removed, the reaction was cooled and stopped by adding twice the amount of quench solution consisting of acetonitrile/methanol 1:1, and containing 0.2 μM carbutamide as internal standard. The samples were frozen until analyzed. The remaining concentration of undegraded test substance was determined by liquid chromatography-tandem mass spectrometry (LC-MS/MS). The half-life (t1/2) was determined from the gradient of the ratio of the signal of (test substance/internal standard)/unit time plot, allowing the calculation of the half-life of the test substance, assuming first order kinetics, from the decrease in the concentration of the compound with time. The microsomal clearance (mClint) was calculated as follows: mClint=((ln(2)/t ½)/Microsomal Protein Concentration (mg/ml))*1000, leading to the unit of uL/min/mg. The scaled clearance (mClin_scaled) was calculated as mCLint_scaled=m CLint*(Microsomal Yield (mg/kg BW))/1000000*60, leading to the units L/h/kg. The Microsomal Yield is defined by the specifics of the used microsomes. Calculations were modified from references: Di, The Society for Biomolecular Screening, 2003, 453-462; Obach, D M D, 1999 vol 27. N 11, 1350-1359.
Calculation of Unbound Intrinsic Clearance
C1int unbound=C1 int/fu mic

[2] = target: T1, human 5-HT2B receptor (Homo sapiens, UniProt P41595); experiment: Human 5-HT2B functional assay (calcium mobilisation in CHO-FlpIn cells, FLIPR); format: cell-based; conditions: based on agonism: EC50 5-HT2B/EC50 5-HT2C
T1 construct: expressed in transfected cells; host or cells: CHO-FlpIn
T1 sequence (P41595 whole entry): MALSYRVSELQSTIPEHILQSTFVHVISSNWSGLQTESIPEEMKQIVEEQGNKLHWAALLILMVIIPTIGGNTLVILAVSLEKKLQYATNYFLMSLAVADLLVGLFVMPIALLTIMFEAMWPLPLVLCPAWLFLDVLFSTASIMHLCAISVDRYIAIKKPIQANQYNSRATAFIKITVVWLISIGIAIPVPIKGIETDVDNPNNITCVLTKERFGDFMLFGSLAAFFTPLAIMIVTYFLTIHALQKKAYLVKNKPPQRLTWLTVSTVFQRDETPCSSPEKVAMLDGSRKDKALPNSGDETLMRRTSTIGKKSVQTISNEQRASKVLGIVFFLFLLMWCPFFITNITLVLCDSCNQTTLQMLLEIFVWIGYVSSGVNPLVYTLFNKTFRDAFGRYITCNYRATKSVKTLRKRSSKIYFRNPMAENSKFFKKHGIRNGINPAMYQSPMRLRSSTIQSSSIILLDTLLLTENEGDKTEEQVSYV
Description: 3. Human 5-HT2B Functional Assay
Functional activity on the 5-HT2B receptor was determined by testing the effect of the compounds I on calcium mobilisation in CHO-FlpIn cells, stably transfected with human 5-HT2B receptor. Cells were seeded into sterile black 384-well plates with clear bottom at 30,000 cells/well in a volume of 25 μl and grown overnight at 37° C., in 5% CO2 in tissue culture medium (“CHO-S-SFM II” by Invitrogen), containing 1% dialysed FCS and 50 μg/ml gentamicin (Invitrogen). On the next morning, medium was replaced by a serum free version of the same tissue culture medium for a further incubation for 4 hours at 37° C. and in 5% CO2. Cells were then loaded with a fluorescent calcium-sensitive dye in the presence of 0.07% probenecid for an hour at 37° C., according to the manufacturer's protocol (Ca5-Assay Kit, Molecular Devices), followed by an additional 60 min incubation at room temperature. Serial compound dilutions (final concentrations of 10^−10 to 10^−5M, prepared in HBSS+50 mM HEPES) were first added to the cells alone (“first addition” to assess agonism on the 5-HT2B receptor), then after 8 min, serotonin was added to the same wells at a final concentration of 10^−8 M (“second addition” to see potential antagonistic effect) and the maximal calcium response was determined using a FLIPR® Tetra instrument (Molecular Devices) in each of the two steps. The relative efficacy of the compounds was calculated as a percentage of the maximal effect induced by serotonin alone (defined as 100%). To determine EC50/IC50 values, concentration-response curves were fitted using a four-parameter logistic equation (IDBS Biobookml). Kb values were calculated from IC50 values, according to Cheng & Prusoff

[3] = target: T2, 5-HT2C receptor (Homo sapiens, UniProt P28335); experiment: Human 5-HT2C functional assay (beta-arrestin2 recruitment, U2OS_HTR2C_β-Arrestin cells); format: cell-based; conditions: for pEC50: Potency (EC50 5-HT2C) in functional assay, agonism, read-out: EC50 5-HT2C; for Emax: relative efficacy vs maximal effect induced by 5-HT (defined as 100%)
T2 construct: host or cells: U2OS
T2 sequence (P28335 33-458): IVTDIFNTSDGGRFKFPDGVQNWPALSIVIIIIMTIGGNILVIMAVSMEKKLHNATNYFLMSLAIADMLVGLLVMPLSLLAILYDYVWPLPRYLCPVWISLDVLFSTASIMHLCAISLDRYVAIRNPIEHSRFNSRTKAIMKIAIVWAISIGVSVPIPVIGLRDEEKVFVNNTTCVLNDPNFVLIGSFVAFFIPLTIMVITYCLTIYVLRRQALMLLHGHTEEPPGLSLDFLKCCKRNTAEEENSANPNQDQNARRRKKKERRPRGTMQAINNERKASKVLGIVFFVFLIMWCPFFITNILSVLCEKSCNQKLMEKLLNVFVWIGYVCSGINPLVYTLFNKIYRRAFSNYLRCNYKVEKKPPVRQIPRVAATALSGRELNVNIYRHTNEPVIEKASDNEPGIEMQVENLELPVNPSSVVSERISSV
T2 sequence (P32121 whole entry partner): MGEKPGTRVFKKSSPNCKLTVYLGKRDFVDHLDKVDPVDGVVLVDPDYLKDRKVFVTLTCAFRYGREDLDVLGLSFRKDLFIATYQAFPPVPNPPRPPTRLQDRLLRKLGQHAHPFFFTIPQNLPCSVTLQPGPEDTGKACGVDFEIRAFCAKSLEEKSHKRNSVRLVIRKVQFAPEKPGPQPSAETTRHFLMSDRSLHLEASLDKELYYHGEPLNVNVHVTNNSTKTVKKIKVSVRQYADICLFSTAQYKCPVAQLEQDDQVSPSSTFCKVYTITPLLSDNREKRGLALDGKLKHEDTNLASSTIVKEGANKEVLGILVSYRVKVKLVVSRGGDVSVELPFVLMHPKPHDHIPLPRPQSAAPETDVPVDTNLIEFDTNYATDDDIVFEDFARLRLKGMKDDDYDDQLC
Description: 1. Human 5-HT2C Functional Assay
The functional activity of compounds of formula I was assayed by incubation with U2OS_HTR2C_β-Arrestin cells (DiscoverX, 93-0289C3) to induce beta-arrestin2 recruitment to the 5-HT2C receptor. The agonist-induced recruitment and proximity of the receptor and beta-arrestin2 leads to complementation and formation of active β-galactosidase. The enzyme complementation results in enzyme activity, which is measured following the termination of the agonist incubation using DiscoveRx's detection reagent, which contains a chemiluminescent substrate which produces a high intensity signal. Cells were plated and a medium-change to a 1% serum containing medium was performed 24 h later. The next day, test compounds were added and incubated for 1.5 h before addition of detection reagent.
The response produced was measured and compared with the response produced by 10 [mu]M 5-HT or the maximal effect induced by 5-HT (defined as 100%) to which it was expressed as a percentage response (relative efficacy).

[4] = target: T3, human 5-HT2A receptor (Homo sapiens, UniProt P28223); experiment: Human 5-HT2A functional assay (calcium mobilisation in CHO-K1 cells, FLIPR); format: cell-based; conditions: based on agonism: EC50 5-HT2A/EC50 5-HT2C
T3 construct: expressed in transfected cells; host or cells: CHO-K1
T3 sequence (P28223 whole entry): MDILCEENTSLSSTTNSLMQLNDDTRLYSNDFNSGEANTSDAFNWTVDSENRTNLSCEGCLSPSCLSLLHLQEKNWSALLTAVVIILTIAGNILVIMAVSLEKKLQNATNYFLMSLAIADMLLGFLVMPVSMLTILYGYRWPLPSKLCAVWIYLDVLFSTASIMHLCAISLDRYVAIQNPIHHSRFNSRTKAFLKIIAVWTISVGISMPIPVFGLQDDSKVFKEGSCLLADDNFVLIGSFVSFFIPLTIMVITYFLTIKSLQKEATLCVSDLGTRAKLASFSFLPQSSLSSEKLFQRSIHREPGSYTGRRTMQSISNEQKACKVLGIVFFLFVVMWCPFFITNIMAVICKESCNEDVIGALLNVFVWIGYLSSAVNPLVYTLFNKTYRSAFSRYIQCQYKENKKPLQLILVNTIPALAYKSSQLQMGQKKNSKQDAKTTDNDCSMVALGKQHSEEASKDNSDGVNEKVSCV
Description: 2. Human 5-HT2A Functional Assay
Functional activity on the 5-HT2A receptor was determined by testing the effect of the compounds I on calcium mobilisation in CHO-K1 cells, stably transfected with human 5-HT2A receptor. Cells were seeded into sterile black 384-well plates with clear bottom at 25,000 cells/well in a volume of 25 μl and grown for 5-6 hours at 37° C., in 5% CO2 in tissue culture medium (“Ultra CHO” by LONZA), containing 1% dialysed FCS and 50 μg/ml gentamicin (Invitrogen). After this incubation, medium was replaced by a serum free version of the same tissue culture medium followed by incubation overnight at 37° C. and in 5% CO2. Cells were then loaded with a fluorescent calcium-sensitive dye in the presence of 0.07% probenecid for an hour at 37° C., according to the manufacturer's protocol (Ca5-Assay Kit, Molecular Devices), followed by an additional 60 min incubation at room temperature. Serial compound dilutions (final concentrations of 10^−10 to 10^−5M, prepared in HBSS+50 mM HEPES) were first added to the cells alone (“first addition” to assess agonism on the 5-HT2A receptor), then after 8 min, serotonin was added to the same wells at a final concentration of 3×10^−8 M (“second addition” to see potential antagonistic effect) and the maximal calcium response was determined using a FLIPR® Tetra instrument (Molecular Devices) in each of the two steps. The relative efficacy of the compounds was calculated as a percentage of the maximal effect induced by serotonin alone (defined as 100%). To determine EC50/IC50 values, concentration-response curves were fitted using a four-parameter logistic equation (IDBS Biobookml). Kb values were calculated from IC50 values, according to Cheng & Prusoff

SMILES | CLint scaled at 0.5 μM [1] | Selectivity over 5-HT2B [2] | pEC50 [3] | Emax [3] | Selectivity over 5-HT2A [4]
COC[C@@H]1C[C@@H]2CNCCN2c2cc(C(F)(F)F)cc(Cl)c2O1 [Example 45, (4aR,6S)-8-Chloro-6-(methoxymethyl)-10-(trifluoromethyl)-2,3,4,4a,5,6-hexahydro-1H-pyrazino[2,1-d][1,5]benzoxazepine] | 83.3 to 833 mL/min/kg | +++ (>100) | 6.70 to 7.70 | > 70% | +++ (>100)
COC[C@@H]1C[C@@H]2CNCCN2c2cc(F)cc(F)c2O1.Cl [Example 11, (4aR,6S)-8,10-Difluoro-6-(methoxymethyl)-2,3,4,4a,5,6-hexahydro-1H-pyrazino[2,1-d][1,5]benzoxazepine hydrochloride] | < 83.3 mL/min/kg | ++ (from >30 to 100) | 6.70 to 7.70 | > 70% | +++ (>100)
COC[C@@H]1C[C@@H]2CNCCN2c2c(F)ccc(Cl)c2O1.O=C(O)/C=C/C(=O)O [Example 15, (4aR,6S)-8-Chloro-11-fluoro-6-(methoxymethyl)-2,3,4,4a,5,6-hexahydro-1H-pyrazino[2,1-d][1,5]benzoxazepine; fumaric acid] | < 83.3 mL/min/kg | +++ (>100) | > 7.70 | > 70% | +++ (>100)
COC[C@@H]1C[C@@H]2CNCCN2c2c(ccc(F)c2F)O1.Cl [Example 21, (4aR,6S)-10,11-Difluoro-6-(methoxymethyl)-2,3,4,4a,5,6-hexahydro-1H-pyrazino[2,1-d][1,5]benzoxazepine hydrochloride] | < 83.3 mL/min/kg | ++ (from >30 to 100) | 6.70 to 7.70 | 30 to 50% | ++ (from >30 to 100)
COC[C@H]1C[C@@H]2CNCCN2c2cccc(Cl)c2O1.O=C(O)C(F)(F)F [Example 2, (4aR,6R)-8-Chloro-6-(methoxymethyl)-2,3,4,4a,5,6-hexahydro-1H-pyrazino[2,1-d][1,5]benzoxazepine; 2,2,2-trifluoroacetic acid] | < 83.3 mL/min/kg | +++ (>100) | 6.70 to 7.70 | 50 to 70% | +++ (>100)
Cc1ccc2c(c1F)O[C@H](CO)C[C@@H]1CNCCN21 [Example 39, [(4aR,6S)-8-Fluoro-9-methyl-2,3,4,4a,5,6-hexahydro-1H-pyrazino[2,1-d][1,5]benzoxazepin-6-yl]methanol] | < 83.3 mL/min/kg | ++ (from >30 to 100) | 6.70 to 7.70 | 50 to 70% | ++ (from >30 to 100)
C#Cc1cc(F)c(F)c2c1O[C@H](COC)C[C@@H]1CNCCN21.Cl [Example 40, (4aR,6S)-8-Ethynyl-10,11-difluoro-6-(methoxymethyl)-2,3,4,4a,5,6-hexahydro-1H-pyrazino[2,1-d][1,5]benzoxazepine hydrochloride] | < 83.3 mL/min/kg | + (from 10 to 30) | > 7.70 | > 70% | +++ (>100)
COC[C@@H]1C[C@@H]2CNCCN2c2cc(F)cc(C#N)c2O1.Cl [Example 13, (4aR,6S)-10-Fluoro-6-(methoxymethyl)-2,3,4,4a,5,6-hexahydro-1H-pyrazino[2,1-d][1,5]benzoxazepine-8-carbonitrile hydrochloride] | < 83.3 mL/min/kg | ++ (from >30 to 100) | 6.70 to 7.70 | > 70% | +++ (>100)
COC[C@@H]1C[C@@H]2CNCCN2c2cc(F)c(F)c(Cl)c2O1.Cl [Example 38, (4aR,6S)-8-Chloro-9,10-difluoro-6-(methoxymethyl)-2,3,4,4a,5,6-hexahydro-1H-pyrazino[2,1-d][1,5]benzoxazepine hydrochloride] | < 83.3 mL/min/kg | ++ (from >30 to 100) | > 7.70 | > 70% | ++ (from >30 to 100)
COC[C@@H]1C[C@@H]2CNCCN2c2c(F)c(OC)cc(C(F)F)c2O1.Cl [Example 29, (4aR,6S)-8-(Difluoromethyl)-11-fluoro-10-methoxy-6-(methoxymethyl)-2,3,4,4a,5,6-hexahydro-1H-pyrazino[2,1-d][1,5]benzoxazepine hydrochloride] | 83.3 to 833 mL/min/kg | +++ (>100) | 6.70 to 7.70 | > 70% | +++ (>100)
COC[C@@H]1C[C@@H]2CNCCN2c2ccc(C)c(F)c2O1 [Example 30, (4aR,6S)-8-Fluoro-6-(methoxymethyl)-9-methyl-2,3,4,4a,5,6-hexahydro-1H-pyrazino[2,1-d][1,5]benzoxazepine] | < 83.3 mL/min/kg | ++ (from >30 to 100) | 6.70 to 7.70 | 50 to 70% | ++ (from >30 to 100)
COC[C@H]1C[C@@H]2CNCCN2c2c(F)c(F)cc(Cl)c2O1.Cl [Example 37, (4aR,6R)-8-Chloro-10,11-difluoro-6-(methoxymethyl)-2,3,4,4a,5,6-hexahydro-1H-pyrazino[2,1-d][1,5]benzoxazepine hydrochloride] | < 83.3 mL/min/kg | + (from 10 to 30) | 6.00 to 6.70 | 30 to 50% | + (from 10 to 30)
